From ChEMBL document CHEMBL5291721, “A preclinical secondary pharmacology resource illuminates target-adverse drug reaction associations of marketed drugs” (Nat Commun, 2023)

Key:
[1] = target: T1, Alpha-1A adrenergic receptor (Homo sapiens, UniProt P35348); format: functional, cell-based
T1 sequence (P35348 whole entry): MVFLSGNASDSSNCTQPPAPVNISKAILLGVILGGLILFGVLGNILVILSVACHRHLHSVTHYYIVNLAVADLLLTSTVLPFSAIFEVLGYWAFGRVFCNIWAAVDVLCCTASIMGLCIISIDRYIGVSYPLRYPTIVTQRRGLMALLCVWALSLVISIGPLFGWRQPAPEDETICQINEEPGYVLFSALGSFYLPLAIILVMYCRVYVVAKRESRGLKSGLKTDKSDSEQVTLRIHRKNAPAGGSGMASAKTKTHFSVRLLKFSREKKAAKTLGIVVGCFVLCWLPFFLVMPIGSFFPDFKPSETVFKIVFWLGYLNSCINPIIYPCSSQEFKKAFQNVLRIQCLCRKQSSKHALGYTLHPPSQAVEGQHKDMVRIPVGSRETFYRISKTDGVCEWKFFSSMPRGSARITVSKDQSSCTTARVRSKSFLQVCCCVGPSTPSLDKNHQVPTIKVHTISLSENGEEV

Histamine H2 receptor = Histamine H2 receptor (Homo sapiens, UniProt P25021); format: functional, cell-based
Histamine H2 receptor, sequence (P25021 whole entry): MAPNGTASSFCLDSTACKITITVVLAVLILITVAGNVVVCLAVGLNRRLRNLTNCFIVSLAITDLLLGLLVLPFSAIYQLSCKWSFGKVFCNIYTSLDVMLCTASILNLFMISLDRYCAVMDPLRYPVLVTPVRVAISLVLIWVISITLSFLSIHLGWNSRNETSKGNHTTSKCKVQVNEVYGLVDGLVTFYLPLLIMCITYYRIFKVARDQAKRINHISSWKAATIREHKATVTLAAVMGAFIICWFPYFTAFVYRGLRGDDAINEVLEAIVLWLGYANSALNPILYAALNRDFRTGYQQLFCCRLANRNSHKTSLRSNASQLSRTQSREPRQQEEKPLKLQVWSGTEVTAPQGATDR

[2] = target: cGMP-inhibited 3',5'-cyclic phosphodiesterase 3A (Homo sapiens, UniProt Q14432); format: functional
cGMP-inhibited 3',5'-cyclic phosphodiesterase 3A, sequence (Q14432 whole entry): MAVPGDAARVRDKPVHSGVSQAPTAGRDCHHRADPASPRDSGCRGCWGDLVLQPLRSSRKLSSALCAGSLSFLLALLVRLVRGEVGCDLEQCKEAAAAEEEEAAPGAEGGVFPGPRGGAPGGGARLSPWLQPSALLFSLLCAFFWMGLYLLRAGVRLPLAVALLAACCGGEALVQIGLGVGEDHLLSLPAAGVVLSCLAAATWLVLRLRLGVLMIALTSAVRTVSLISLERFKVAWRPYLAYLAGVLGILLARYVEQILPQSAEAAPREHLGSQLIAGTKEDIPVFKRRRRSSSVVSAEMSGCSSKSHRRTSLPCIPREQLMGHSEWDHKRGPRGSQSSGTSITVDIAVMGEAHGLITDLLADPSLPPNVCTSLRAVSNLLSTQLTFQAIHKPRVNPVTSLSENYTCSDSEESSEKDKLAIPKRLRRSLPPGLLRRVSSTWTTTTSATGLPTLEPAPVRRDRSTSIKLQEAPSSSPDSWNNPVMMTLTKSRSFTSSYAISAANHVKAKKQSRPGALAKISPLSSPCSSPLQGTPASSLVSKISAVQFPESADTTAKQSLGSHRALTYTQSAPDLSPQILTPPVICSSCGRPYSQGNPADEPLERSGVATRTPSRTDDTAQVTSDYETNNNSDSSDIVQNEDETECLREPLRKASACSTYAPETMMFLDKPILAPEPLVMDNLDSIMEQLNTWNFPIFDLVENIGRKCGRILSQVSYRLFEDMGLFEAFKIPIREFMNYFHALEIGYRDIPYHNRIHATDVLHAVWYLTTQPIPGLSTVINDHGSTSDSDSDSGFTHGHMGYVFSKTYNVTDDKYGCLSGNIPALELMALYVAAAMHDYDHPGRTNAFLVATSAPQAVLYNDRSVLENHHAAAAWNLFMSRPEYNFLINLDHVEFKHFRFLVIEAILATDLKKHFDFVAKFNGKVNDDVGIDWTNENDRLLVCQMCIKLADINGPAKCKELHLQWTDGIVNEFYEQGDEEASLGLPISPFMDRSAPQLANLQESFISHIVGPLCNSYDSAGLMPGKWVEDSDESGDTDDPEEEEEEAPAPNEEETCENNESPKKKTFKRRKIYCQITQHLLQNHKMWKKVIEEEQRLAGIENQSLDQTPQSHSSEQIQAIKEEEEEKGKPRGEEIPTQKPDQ

[3] = target: T2, Muscarinic acetylcholine receptor M2 (Homo sapiens, UniProt P08172); format: functional, cell-based
T2 sequence (P08172 whole entry): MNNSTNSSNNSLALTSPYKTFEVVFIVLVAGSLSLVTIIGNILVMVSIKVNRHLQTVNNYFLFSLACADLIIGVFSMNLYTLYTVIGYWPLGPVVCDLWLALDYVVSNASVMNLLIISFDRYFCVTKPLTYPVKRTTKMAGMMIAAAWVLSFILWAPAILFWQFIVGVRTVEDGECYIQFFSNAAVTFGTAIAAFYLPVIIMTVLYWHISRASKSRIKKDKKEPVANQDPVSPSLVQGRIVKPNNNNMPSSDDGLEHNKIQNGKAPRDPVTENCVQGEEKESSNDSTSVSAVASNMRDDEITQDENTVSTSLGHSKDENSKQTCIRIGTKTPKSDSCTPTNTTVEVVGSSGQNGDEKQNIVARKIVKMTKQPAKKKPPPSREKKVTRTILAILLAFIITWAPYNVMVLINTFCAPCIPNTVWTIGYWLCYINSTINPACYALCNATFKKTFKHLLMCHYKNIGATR

Melanocortin receptor 3 = Melanocortin receptor 3 (Homo sapiens, UniProt P41968)
Melanocortin receptor 3, sequence (P41968 whole entry): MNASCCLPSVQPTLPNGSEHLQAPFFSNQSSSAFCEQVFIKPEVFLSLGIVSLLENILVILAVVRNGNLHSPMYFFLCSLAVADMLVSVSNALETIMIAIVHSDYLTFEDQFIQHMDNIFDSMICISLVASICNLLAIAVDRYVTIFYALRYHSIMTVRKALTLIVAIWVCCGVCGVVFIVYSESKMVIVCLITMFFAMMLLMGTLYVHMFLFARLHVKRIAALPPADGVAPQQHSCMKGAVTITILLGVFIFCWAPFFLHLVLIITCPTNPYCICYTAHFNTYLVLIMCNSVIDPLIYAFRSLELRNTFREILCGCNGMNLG

[4] = target: 5-hydroxytryptamine receptor 2B (Homo sapiens, UniProt P41595); format: functional, cell-based
5-hydroxytryptamine receptor 2B, sequence (P41595 whole entry): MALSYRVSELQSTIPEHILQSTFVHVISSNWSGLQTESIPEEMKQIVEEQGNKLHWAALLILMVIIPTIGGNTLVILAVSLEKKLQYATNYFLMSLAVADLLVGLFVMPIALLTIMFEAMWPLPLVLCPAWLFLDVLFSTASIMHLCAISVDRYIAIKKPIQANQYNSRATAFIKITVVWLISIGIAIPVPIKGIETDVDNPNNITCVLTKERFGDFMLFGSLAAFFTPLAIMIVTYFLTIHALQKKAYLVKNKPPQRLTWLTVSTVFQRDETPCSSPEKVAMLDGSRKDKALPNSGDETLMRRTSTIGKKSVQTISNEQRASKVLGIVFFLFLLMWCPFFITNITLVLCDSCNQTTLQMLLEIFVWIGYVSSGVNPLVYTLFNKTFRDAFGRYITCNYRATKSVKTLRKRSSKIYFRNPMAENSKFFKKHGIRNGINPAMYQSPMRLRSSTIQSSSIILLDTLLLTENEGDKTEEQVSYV

[5] = target: Gamma-aminobutyric acid receptor subunit alpha-1 (Rattus norvegicus, UniProt P62813)
Gamma-aminobutyric acid receptor subunit alpha-1, sequence (P62813 whole entry): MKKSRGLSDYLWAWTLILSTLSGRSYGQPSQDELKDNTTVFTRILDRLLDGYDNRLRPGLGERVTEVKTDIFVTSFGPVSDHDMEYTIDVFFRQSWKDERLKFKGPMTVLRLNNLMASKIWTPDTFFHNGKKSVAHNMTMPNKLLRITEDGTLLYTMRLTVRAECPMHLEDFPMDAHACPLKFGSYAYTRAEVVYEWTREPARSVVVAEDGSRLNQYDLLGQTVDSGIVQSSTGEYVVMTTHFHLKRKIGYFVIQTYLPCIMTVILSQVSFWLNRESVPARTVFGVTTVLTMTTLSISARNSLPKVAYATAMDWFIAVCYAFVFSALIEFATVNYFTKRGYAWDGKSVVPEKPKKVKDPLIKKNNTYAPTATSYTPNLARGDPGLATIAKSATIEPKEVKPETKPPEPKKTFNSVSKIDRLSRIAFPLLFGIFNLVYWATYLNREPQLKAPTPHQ

[6] = target: T3, Alpha-2A adrenergic receptor (Homo sapiens, UniProt P08913); format: functional, cell-based
T3 sequence (P08913 whole entry): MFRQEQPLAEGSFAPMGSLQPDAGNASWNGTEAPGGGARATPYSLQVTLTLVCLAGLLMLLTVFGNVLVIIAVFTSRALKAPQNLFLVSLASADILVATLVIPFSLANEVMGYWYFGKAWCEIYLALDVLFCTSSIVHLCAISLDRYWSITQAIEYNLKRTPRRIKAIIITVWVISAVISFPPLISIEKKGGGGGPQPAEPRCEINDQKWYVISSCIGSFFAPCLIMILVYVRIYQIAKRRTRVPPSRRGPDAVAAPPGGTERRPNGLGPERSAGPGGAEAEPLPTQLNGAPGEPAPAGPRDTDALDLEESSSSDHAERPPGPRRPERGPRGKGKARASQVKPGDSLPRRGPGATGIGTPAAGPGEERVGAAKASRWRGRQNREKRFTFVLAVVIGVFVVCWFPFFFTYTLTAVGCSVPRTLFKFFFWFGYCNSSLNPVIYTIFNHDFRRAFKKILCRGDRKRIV

D(1A) dopamine receptor = D(1A) dopamine receptor (Homo sapiens, UniProt P21728); format: functional, cell-based
D(1A) dopamine receptor, sequence (P21728 whole entry): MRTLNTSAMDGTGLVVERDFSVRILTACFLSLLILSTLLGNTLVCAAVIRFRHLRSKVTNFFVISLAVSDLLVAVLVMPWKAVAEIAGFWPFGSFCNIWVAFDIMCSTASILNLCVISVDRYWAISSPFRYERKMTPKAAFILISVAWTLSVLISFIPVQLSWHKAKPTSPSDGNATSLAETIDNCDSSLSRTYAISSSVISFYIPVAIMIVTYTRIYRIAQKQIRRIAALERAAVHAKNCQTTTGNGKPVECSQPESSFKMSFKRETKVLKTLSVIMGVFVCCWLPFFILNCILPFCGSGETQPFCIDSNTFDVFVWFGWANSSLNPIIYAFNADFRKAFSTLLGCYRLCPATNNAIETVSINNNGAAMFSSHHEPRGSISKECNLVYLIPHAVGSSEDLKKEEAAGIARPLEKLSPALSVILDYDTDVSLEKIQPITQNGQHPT

[7] = target: T4, Prostaglandin G/H synthase 1 (Rattus norvegicus, UniProt Q63921); format: functional
T4 sequence (Q63921 whole entry): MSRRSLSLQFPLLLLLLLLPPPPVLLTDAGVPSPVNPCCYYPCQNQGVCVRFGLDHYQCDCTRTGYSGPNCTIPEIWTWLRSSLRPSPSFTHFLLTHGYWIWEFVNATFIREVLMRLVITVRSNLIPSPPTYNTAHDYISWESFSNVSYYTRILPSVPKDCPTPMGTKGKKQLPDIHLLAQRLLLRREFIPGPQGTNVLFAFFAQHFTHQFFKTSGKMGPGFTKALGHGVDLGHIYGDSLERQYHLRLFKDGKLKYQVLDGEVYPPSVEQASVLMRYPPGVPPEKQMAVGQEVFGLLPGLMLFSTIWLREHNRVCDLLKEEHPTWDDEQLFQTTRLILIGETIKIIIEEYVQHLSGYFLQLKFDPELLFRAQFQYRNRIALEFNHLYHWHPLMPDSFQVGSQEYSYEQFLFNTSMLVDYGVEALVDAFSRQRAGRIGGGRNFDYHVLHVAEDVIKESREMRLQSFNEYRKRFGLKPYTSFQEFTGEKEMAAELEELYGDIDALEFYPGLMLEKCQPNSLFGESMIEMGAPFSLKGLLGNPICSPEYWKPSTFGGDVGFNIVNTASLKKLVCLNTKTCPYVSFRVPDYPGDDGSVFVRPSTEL

[8] = target: T5, Amine oxidase [flavin-containing] A (Homo sapiens, UniProt P21397); format: functional
T5 sequence (P21397 whole entry): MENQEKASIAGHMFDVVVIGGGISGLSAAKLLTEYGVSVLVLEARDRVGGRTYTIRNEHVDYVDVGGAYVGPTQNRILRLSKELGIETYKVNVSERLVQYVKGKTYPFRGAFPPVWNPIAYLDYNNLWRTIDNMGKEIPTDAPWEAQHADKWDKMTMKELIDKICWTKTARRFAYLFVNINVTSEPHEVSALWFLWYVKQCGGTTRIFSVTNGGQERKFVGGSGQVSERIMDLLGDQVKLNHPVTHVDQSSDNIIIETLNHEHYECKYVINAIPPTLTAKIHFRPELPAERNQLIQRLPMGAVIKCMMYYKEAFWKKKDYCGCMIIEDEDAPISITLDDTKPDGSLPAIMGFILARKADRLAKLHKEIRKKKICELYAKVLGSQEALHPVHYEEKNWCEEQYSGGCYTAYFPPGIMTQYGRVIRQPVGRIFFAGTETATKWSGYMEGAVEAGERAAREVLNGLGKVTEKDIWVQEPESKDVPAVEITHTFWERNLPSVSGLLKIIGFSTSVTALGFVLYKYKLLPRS
Further: assay procedure not described here.

AC50 (Melanocortin receptor 3) | AC50 [7] | Structure (SMILES) | AC50 [1] | AC50 (Histamine H2 receptor) | AC50 [2] | AC50 [3] | AC50 [4] | AC50 [5] | AC50 [6] | AC50 (D(1A) dopamine receptor) | AC50 [8]
> 30 µM | 1.3 µM | CN(CCCN1c2ccccc2CCc2ccccc21)CC(=O)c1ccc(Cl)cc1 [LOFEPRAMINE] | > 30 µM | > 30 µM | > 30 µM | > 30 µM | > 30 µM | > 30 µM | > 30 µM | > 30 µM | 
> 30 µM | > 30 µM | CN(C)CCCN1c2ccccc2Sc2ccccc21 [PROMAZINE] | > 30 µM | > 10 µM | 15 µM | > 10 µM | > 10 µM | > 10 µM | > 10 µM | > 10 µM | > 10 µM
> 10 µM | > 10 µM | NS(=O)(=O)c1cc(Cl)c(Cl)c(S(N)(=O)=O)c1 [DICHLORPHENAMIDE] | > 30 µM | > 10 µM | > 30 µM | > 10 µM | > 10 µM | > 10 µM | > 10 µM | > 10 µM | > 10 µM
 |  | CN1C(=O)N(C)C2C1N(C)C(=O)N2C (stereo unspecified) [MEBICAR] | > 30 µM | > 30 µM | > 30 µM | > 30 µM |  | > 30 µM | > 30 µM | > 30 µM | > 30 µM
> 30 µM | 23.1 µM | CN(C/C=C/c1ccccc1)Cc1cccc2ccccc12 [NAFTIFINE] | > 30 µM | > 10 µM | > 30 µM | > 10 µM | > 10 µM | > 10 µM | > 10 µM | > 10 µM | > 10 µM
 |  | NS(=O)(=O)c1cc2c(cc1Cl)NC(CC1CCCC1)NS2(=O)=O (stereo unspecified) [CYCLOPENTHIAZIDE] | > 30 µM | > 30 µM | > 30 µM |  | > 30 µM | > 30 µM | > 30 µM | > 30 µM | > 30 µM
 |  | N/N=c1/cc2c(n[nH]1)CCN(C(=O)c1ccccc1)C2 [ENDRALAZINE] | > 30 µM | > 30 µM | > 30 µM |  | > 30 µM | > 30 µM | > 30 µM | > 30 µM | > 30 µM
 |  | Nc1ccc(/N=N/c2ccccc2)c(N)n1 [PHENAZOPYRIDINE] | > 30 µM | > 30 µM | 22 µM | > 30 µM | > 30 µM | > 30 µM | > 30 µM | > 30 µM | > 30 µM
 |  | COCC1=C(C(=O)OC(C)OC(=O)OC(C)C)N2C(=O)[C@@H](NC(=O)/C(=N\OC)c3csc(N)n3)[C@H]2SC1 (stereo partly specified) [CEFPODOXIME PROXETIL] | > 30 µM | > 30 µM | > 30 µM | > 30 µM | > 30 µM | > 30 µM | > 30 µM | > 30 µM | > 30 µM
 |  | CO/N=C(\C(=O)N[C@@H]1C(=O)N2C(C(=O)OCOC(=O)C(C)(C)C)=C(C)CS[C@H]12)c1csc(N)n1 | > 30 µM | > 30 µM | > 30 µM |  | > 30 µM | > 30 µM | > 30 µM | > 30 µM | > 30 µM
> 30 µM | > 30 µM | CC(=O)N[C@H]1[C@H]([C@H](O)[C@H](O)CO)OC(C(=O)O)=C[C@@H]1N=C(N)N [ZANAMIVIR] |  | > 30 µM | > 30 µM | > 10 µM | > 30 µM | > 10 µM | > 10 µM | > 30 µM | > 30 µM
> 10 µM | > 10 µM | CN(C)[C@@H]1C(O)=C(C(N)=O)C(=O)[C@@]2(O)C(O)=C3C(=O)c4c(O)ccc(Cl)c4[C@@H](O)[C@H]3C[C@@H]12 [DEMECLOCYCLINE] |  | > 10 µM | > 30 µM | > 10 µM | > 10 µM | > 10 µM | > 10 µM | > 10 µM | > 10 µM
> 10 µM | > 10 µM | C[N+](C)(C)CCOC(N)=O [CARBAMOYLCHOLINE] | > 30 µM | > 30 µM | > 30 µM |  | > 30 µM | > 10 µM | > 30 µM | > 30 µM | > 10 µM

Structure (SMILES) | AC50 (Melanocortin receptor 3) | AC50 [7] | AC50 [1] | AC50 (Histamine H2 receptor) | AC50 [2] | AC50 [3] | AC50 [4] | AC50 [5] | AC50 [6] | AC50 (D(1A) dopamine receptor) | AC50 [8]
O=C(O)CCn1c2c(c3ccccc31)C[C@H](NS(=O)(=O)c1ccc(F)cc1)CC2 [RAMATROBAN] | > 30 µM | > 30 µM |  | > 30 µM | > 30 µM | > 10 µM | > 10 µM | > 10 µM | > 10 µM | > 30 µM | > 10 µM
O=C(Nc1ccccc1)OCC(CN1CCCCC1)OC(=O)Nc1ccccc1 (stereo unspecified) [DIPERODON] | > 30 µM | > 30 µM | > 30 µM | > 10 µM | > 10 µM | > 30 µM | > 10 µM | > 10 µM | > 10 µM | > 10 µM | > 10 µM
O=C(O)c1cccc(-c2noc(-c3ccccc3F)n2)c1 | > 30 µM | > 30 µM |  |  | > 30 µM | > 10 µM |  |  |  |  | 5.3 µM
CC(=O)O[C@]1(C(C)=O)CC[C@H]2[C@@H]3C[C@H](C)C4=CC(=O)CC[C@]4(C)[C@H]3CC[C@@]21C [MEDROXYPROGESTERONE ACETATE] | > 30 µM | > 30 µM |  |  |  |  |  |  |  |  | 
CS(=O)(=O)Nc1cc2occ(NC=O)c(=O)c2cc1Oc1ccccc1 [IGURATIMOD] | > 30 µM | > 30 µM |  |  | > 30 µM |  | > 30 µM |  |  |  | > 30 µM
